Source: ChEMBL document CHEMBL1201862, “PubChem BioAssay data set” (2004)
Active and inactive are the calls of the source.

Columns and labels:
[1] = target: T1, Corticotropin-releasing factor receptor 2/Corticotropin-releasing factor-binding protein (Homo sapiens, UniProt P24387+Q13324); test: activators of CRF receptor 2 with binding protein – uHTS hits, confirmation (AID 602473); format: functional; conditions: read-out: EC50_Mean
T1 sequence (Q13324 whole entry): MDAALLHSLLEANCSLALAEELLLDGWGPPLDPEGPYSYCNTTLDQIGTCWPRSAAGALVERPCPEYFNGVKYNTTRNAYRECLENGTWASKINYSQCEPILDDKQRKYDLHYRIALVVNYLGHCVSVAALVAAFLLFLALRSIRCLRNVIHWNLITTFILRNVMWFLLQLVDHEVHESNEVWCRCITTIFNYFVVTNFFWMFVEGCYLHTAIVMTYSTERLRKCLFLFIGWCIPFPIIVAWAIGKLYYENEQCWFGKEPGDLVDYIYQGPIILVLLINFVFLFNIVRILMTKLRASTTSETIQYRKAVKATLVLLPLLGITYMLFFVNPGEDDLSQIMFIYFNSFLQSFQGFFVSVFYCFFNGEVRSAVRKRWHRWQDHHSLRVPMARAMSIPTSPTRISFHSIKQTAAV
T1 sequence (P24387 whole entry): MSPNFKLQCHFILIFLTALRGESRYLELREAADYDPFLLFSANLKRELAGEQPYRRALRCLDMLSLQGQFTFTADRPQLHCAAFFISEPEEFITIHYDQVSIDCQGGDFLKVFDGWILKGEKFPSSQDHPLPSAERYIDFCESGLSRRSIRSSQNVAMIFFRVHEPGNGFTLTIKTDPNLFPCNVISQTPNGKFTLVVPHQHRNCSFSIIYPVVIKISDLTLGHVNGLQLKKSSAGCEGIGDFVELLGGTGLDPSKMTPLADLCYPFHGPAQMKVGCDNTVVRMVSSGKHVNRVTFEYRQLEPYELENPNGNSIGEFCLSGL

[2] = target: T2, Sentrin-specific protease 1 (Homo sapiens, UniProt Q9P0U3); test: Dose response confirmation of small molecule inhibitors of the catalytic domain of the SUMO protease, SENP1 in a FRET assay.; format: functional; conditions: read-out: IC50_Mean
T2 sequence (Q9P0U3 whole entry): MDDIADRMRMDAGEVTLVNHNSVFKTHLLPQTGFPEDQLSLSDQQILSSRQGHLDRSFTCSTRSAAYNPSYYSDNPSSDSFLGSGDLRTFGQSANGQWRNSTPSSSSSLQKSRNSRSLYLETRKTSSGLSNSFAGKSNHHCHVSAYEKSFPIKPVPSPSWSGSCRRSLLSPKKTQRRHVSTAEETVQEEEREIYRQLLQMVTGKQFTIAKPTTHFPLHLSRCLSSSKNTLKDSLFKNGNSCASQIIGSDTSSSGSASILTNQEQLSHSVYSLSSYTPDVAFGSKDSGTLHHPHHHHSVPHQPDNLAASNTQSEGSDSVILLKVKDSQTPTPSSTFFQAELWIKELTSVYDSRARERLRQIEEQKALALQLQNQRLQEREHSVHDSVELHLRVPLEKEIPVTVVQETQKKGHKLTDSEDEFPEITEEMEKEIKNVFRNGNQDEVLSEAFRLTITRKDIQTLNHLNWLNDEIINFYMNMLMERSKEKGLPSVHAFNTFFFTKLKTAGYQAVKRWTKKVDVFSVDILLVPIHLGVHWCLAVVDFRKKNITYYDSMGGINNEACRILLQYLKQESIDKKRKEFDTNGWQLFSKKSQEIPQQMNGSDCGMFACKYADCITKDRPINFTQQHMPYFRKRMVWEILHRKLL

[3] = target: T2, Sentrin-specific protease 1; test: SENP1 catalytic domain blockers, concentration series – biochemical, kinetic FRET, dose response (AID 651697); format: functional; conditions: read-out: IC50_Mean
[4] = blockers of HIV-1 ZM109 envelope-driven cell-cell fusion – HeLa effector, CEM target cells, luciferase, cherry-pick, dose response (AID 652058); format: functional, cell-based;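 further: luciferase signal from HIV-1 Env mediated cell-cell fusion of effector and target cells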
HEK293 = test: EBV LMP1 TES2 canonical NF-kB signalling blockers – cell-based, HEK293, luciferase, cherry-pick, dose response (AID 588343); format: functional; conditions: Homo sapiens
[5] = off-target signal loss in HeLa-CEM21 co-culture – HeLa F-luc CTL cells, cherry-picked, counter-screen for HIV-1 Env fusion inhibitor project, dose response (AID 652040); format: functional, cell-based;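 further: potency for signal decrease marking cytotoxic or nonspecific inhibition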
[6] = HIV-1 AD8 envelope cell-cell fusion blockers – cherry-pick, dose response (AID 652062); format: functional, cell-based;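 further: luciferase signal from cell-cell fusion driven by HIV-1 clade B AD8 Env; potency is for inhibitors of fusion seen as a drop in luminescence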
[7] = blockers of HIV-1 envelope-mediated cell-cell fusion – cherry-pick, dose response (AID 652057); format: functional, cell-based
cells [8] = format: functional, cell-based
cells [9] = format: functional, cell-based; remark: listed apart in the source
Beta-lactamase [10] = target: T3, Beta-lactamase (Pseudomonas aeruginosa, UniProt Q79MP6); test: […] counterscreen for selective VIM-2 inhibitors: dose response biochemical high throughput screening assay to identify inhibitors of IMP-1 metallo-beta-lactamase.
[11] = target: T4, Short transient receptor potential channel 4 (Mus musculus, UniProt Q9QUQ5); test: block of DAMGO-driven TRPC4 calcium entry – cell-based, HEK293 TRPC4/mu-opioid, Fluo-4 calcium, dose response (AID 434942); format: functional;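 further: potency of inhibitors blocking the TRPC4 calcium response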
T4 sequence (Q9QUQ5 whole entry): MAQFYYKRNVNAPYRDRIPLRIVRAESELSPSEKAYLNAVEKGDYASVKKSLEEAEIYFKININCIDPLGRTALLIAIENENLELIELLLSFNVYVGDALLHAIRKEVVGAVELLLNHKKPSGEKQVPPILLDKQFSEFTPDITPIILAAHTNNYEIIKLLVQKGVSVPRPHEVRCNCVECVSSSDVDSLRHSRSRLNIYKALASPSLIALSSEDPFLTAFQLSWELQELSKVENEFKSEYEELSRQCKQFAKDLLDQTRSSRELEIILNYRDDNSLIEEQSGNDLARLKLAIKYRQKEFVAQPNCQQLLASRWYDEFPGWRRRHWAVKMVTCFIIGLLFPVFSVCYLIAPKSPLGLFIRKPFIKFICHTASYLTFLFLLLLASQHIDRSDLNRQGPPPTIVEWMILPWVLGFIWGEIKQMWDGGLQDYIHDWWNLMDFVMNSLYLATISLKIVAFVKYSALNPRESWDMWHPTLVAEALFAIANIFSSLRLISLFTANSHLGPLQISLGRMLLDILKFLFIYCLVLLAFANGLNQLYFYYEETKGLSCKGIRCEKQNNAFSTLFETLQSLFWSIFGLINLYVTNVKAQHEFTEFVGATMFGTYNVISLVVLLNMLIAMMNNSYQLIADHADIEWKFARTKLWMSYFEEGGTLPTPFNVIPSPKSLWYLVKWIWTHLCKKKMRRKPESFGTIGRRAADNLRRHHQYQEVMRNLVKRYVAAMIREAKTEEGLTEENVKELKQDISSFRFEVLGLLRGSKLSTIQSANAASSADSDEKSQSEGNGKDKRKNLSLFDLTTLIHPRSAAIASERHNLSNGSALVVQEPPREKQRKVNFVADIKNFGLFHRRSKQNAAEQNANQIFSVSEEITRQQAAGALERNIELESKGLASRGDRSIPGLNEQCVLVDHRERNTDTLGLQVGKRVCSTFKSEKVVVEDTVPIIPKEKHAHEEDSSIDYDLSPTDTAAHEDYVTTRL

Beta-lactamase [12] = target: T3, Beta-lactamase; test: inhibition of IMP-1 beta-lactamase activity – biochemical, epi-absorbance, selectivity assay for VIM-2 inhibitor project, dose response (AID 1920)
Beta-lactamase [13] = target: Beta-lactamase (Salmonella choleraesuis (strain SC-B67), UniProt Q5J463); test: Epi-absorbance-based counterscreen for selective VIM-2 inhibitors: dose response biochemical high throughput screening assay to identify inhibitors of TEM-1 serine-beta-lactamase.
Cysteine protease ATG4B = target: T5, Cysteine protease ATG4B (Homo sapiens, UniProt Q9Y4P1); format: functional;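 further: Fluorescence-based dose-response confirmation assay measuring inhibition of ATG4B activity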
T5 sequence (Q9Y4P1 whole entry): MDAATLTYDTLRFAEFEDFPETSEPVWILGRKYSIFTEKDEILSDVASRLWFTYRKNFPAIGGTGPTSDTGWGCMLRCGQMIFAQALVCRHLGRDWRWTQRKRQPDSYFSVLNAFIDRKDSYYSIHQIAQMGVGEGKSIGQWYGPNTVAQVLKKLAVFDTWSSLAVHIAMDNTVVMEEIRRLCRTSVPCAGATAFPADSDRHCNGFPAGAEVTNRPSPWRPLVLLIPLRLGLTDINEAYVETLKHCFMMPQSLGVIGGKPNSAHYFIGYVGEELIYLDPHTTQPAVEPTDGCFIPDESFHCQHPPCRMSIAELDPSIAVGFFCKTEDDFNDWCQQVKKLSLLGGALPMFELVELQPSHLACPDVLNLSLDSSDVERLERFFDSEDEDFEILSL

Phospholipase A2 = Phospholipase A2 (Homo sapiens, UniProt P04054); format: functional;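 further: confirmatory dose-response counterscreen on phospholipase A2, testing hits that came from an ultra-high-throughput screen for ATG4B inhibitors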
[14] = target: Fructose-bisphosphate aldolase (Mycobacterium tuberculosis, UniProt P9WQA3); test: Fluorescence-based biochemical high throughput dose response assay for inhibitors of the fructose-bisphosphate aldolase (FBA) of M. tuberculosis.; format: functional
Sequence of Fructose-bisphosphate aldolase (P9WQA3 whole entry): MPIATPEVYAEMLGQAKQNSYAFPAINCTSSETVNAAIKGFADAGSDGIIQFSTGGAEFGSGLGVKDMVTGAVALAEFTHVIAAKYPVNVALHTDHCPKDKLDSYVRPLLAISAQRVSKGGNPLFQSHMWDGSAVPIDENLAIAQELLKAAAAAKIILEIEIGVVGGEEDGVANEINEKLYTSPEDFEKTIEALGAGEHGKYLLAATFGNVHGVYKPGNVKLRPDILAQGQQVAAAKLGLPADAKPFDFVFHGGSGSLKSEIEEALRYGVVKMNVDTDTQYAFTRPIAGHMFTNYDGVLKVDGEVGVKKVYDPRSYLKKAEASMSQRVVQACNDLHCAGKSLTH

T3 sequence (Q79MP6 whole entry): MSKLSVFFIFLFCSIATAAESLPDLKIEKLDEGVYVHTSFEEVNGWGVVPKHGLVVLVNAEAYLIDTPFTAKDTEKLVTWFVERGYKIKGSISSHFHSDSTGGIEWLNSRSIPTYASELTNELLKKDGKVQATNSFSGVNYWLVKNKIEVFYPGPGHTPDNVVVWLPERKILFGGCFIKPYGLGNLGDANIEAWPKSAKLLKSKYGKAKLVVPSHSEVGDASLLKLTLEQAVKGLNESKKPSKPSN
Sequence of Beta-lactamase (Salmonella choleraesuis (strain SC-B67), UniProt Q5J463) (Q5J463 whole entry): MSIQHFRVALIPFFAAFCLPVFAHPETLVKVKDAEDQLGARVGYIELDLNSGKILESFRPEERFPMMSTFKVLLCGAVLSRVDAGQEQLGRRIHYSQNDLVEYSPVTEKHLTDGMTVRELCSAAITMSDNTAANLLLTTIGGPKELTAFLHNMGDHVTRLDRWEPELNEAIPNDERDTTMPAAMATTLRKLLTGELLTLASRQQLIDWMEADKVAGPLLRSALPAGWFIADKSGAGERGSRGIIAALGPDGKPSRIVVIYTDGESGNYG
Sequence of Phospholipase A2 (P04054 whole entry): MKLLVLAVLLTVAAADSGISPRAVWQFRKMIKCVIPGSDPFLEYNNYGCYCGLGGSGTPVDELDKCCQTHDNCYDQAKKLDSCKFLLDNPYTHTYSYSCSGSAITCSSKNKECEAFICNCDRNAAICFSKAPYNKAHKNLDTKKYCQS

CN(C)N=C(S)Nc1ccc2nc(-c3ccccn3)c(-c3ccccn3)nc2c1
EC50 [1]: > 53 µM (inactive) | IC50 [2]: 9.92 µM (active) | IC50 [3]: 14.3 µM (active)

NC(=O)c1sc2nccc(Nc3ccccc3)c2c1N
AC50 [4]: 0.726 µM (active) | AC50 (HEK293): 3.96 µM (active) | AC50 [5]: 2.12 µM (active) | AC50 [6]: < 0.26 µM (active) | AC50 [7]: 1.37 µM (active) | EC50 (cells [8]): > 350 µM (not active) | EC50 (cells [9]): > 350 µM (not active)

O=C1Nc2cc(C(=O)NCCCN3CCOCC3)ccc2S/C1=C/c1ccccc1F
IC50 (Beta-lactamase [10]): > 59.6 µM (inactive) | EC50 [11]: 2.66 µM (active) | IC50 (Beta-lactamase [12]): > 59.6 µM (inactive) | IC50 (Beta-lactamase [13]): > 59.6 µM (inactive)

CC(C)(C)C(=O)Nc1nnc(CSCc2ccccc2F)s1
IC50 (Beta-lactamase [10]): > 59.6 µM (inactive) | IC50 (Cysteine protease ATG4B): 8.86 µM (active) | IC50 (Beta-lactamase [12]): > 59.6 µM (inactive) | IC50 (Phospholipase A2): 6.65 µM (active) | IC50 (Beta-lactamase [13]): > 59.6 µM (inactive)

CCCC1OC23CCCCC2C(C#N)(C(=N)O3)C1(C#N)C#N (stereo not given)
IC50 [14]: > 9.99 µM (inactive)
